The structures appear in SMILES notation.

Assay [1] concerns the target Calcium/calmodulin-dependent protein kinase type II subunit alpha (Homo sapiens) (UniProt Q9UQM7).
Assay [2] has as its target Casein kinase I isoform gamma-3 (Homo sapiens) (UniProt Q9Y6M4).
Assay [3] concerns the target Serine/threonine-protein kinase Chk2 (Homo sapiens, UniProt O96017).
Assay [4] concerns the target 5'-AMP-activated protein kinase catalytic subunit alpha-2 (Homo sapiens) (UniProt P54646).
Assay [5] concerns the target Serine/threonine-protein kinase PLK1 (Homo sapiens) (UniProt P53350).
The target in assay [6] is Serine/threonine-protein kinase pim-1 (Homo sapiens) (UniProt P11309).
Chain of Serine/threonine-protein kinase pim-1 (Homo sapiens) (P11309 whole entry, looked up): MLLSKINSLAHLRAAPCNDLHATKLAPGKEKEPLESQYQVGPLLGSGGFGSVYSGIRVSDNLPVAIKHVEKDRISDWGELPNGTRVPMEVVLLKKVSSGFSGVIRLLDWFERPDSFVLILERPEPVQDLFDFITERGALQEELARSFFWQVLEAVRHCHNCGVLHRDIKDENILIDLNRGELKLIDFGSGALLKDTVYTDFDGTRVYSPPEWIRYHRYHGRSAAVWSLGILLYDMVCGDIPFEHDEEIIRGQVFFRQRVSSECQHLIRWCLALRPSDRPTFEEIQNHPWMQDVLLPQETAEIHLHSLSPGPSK
Assay [7] concerns the target Dual specificity protein kinase CLK3 (Homo sapiens) (UniProt P49761).
Assay [8] concerns the target Cyclin-dependent kinase-like 1 (Homo sapiens) (UniProt Q00532).
Assay [9] concerns the target T1, Serine/threonine-protein kinase VRK3 (Homo sapiens) (UniProt Q8IV63).
T1 sequence (whole entry): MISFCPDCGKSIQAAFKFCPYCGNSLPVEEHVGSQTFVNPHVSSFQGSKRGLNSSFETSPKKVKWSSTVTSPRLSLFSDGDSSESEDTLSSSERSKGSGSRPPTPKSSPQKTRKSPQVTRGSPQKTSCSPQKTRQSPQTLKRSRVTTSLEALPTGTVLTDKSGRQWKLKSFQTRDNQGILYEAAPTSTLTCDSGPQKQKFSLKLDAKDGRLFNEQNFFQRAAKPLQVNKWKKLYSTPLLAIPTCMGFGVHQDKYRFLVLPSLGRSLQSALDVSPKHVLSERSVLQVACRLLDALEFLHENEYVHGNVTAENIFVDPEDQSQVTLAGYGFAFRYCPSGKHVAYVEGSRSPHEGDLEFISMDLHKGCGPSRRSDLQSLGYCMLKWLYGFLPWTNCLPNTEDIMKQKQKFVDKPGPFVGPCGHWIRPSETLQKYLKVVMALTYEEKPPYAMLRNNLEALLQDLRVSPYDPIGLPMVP

Assay [10] addresses Casein kinase I isoform gamma-2 (Homo sapiens) (UniProt P78368).
Assay [11] has as its target Serine/threonine-protein kinase 26 (Homo sapiens) (UniProt Q9P289).
For assay [12], the target named is Serine/threonine-protein kinase PAK 6 (Homo sapiens) (UniProt Q9NQU5).
The target of assay [13] is T2, Serine/threonine-protein kinase PLK4 (Homo sapiens) (UniProt O00444).
T2 sequence (whole entry): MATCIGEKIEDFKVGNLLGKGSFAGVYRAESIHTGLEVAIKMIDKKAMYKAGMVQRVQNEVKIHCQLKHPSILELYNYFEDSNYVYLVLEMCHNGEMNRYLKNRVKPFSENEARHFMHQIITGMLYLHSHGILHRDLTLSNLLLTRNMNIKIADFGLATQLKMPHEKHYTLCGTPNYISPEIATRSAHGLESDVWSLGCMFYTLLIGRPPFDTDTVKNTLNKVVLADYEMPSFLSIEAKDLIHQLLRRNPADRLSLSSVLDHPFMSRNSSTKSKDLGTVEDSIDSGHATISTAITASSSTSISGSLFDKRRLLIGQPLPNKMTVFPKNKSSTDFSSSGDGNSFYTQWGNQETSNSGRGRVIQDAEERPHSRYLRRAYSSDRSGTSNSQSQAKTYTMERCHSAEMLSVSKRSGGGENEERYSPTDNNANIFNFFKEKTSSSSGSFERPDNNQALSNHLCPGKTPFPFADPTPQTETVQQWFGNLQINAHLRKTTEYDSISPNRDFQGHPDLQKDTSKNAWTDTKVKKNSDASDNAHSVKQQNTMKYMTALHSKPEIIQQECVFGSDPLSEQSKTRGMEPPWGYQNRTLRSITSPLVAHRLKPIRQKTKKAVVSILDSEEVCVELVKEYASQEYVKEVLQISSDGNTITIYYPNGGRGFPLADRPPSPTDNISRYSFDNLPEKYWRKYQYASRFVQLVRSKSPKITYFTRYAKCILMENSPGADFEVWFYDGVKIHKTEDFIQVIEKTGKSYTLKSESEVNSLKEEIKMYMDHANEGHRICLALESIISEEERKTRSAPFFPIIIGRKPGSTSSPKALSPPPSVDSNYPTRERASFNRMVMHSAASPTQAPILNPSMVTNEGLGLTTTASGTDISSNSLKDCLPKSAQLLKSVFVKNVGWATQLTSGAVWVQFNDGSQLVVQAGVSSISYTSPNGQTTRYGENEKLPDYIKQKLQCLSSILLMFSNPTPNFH

Assay [14] has as its target Cyclin-dependent kinase 2 (Homo sapiens, UniProt P24941).
Assay [15] concerns the target Serine/threonine-protein kinase 10 (Homo sapiens) (UniProt O94804).
Assay [16] has as its target T3, Serine/threonine-protein kinase 17A (Homo sapiens) (UniProt Q9UEE5).
T3 sequence (whole entry): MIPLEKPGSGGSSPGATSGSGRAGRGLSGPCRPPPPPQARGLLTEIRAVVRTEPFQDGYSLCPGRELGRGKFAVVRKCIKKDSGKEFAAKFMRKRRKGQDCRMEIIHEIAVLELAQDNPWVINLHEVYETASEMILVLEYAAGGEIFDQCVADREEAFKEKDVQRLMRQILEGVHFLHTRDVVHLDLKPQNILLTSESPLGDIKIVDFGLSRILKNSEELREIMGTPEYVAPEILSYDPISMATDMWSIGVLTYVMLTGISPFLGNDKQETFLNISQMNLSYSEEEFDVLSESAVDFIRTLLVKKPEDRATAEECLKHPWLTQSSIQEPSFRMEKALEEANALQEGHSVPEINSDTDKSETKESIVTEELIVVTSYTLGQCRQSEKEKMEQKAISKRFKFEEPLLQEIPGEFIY

The target in assay [17] is Mitogen-activated protein kinase 6 (Homo sapiens) (UniProt Q16659).
Chain of Mitogen-activated protein kinase 6 (Homo sapiens) (Q16659 whole entry): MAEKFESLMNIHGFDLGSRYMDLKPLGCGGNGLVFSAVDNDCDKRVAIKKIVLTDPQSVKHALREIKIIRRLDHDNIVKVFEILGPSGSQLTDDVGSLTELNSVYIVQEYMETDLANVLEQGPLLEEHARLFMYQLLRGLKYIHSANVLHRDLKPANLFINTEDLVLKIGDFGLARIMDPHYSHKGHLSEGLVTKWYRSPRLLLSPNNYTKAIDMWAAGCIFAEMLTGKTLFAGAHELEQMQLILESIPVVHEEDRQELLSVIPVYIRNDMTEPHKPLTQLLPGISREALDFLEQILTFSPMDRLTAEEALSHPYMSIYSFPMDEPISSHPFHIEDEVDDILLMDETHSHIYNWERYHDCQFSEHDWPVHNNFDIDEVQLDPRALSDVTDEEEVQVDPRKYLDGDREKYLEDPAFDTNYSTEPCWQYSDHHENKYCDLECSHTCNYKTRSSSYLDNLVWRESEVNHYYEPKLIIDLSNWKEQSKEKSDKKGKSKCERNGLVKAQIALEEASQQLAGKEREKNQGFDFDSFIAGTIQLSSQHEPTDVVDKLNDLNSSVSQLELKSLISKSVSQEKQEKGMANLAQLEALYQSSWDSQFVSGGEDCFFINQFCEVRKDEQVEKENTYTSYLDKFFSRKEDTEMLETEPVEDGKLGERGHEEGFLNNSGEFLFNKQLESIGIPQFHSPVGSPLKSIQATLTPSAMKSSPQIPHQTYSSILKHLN
Assay [18] concerns the target Tyrosine-protein kinase JAK1 (Homo sapiens) (UniProt P23458).
For assay [19], the target named is Serine/threonine-protein kinase PAK 5 (Homo sapiens) (UniProt Q9P286).
In assay [20] the target is Serine/threonine-protein kinase pim-2 (Homo sapiens, UniProt Q9P1W9).

Chain of Serine/threonine-protein kinase PLK1 (Homo sapiens) (P53350 whole entry): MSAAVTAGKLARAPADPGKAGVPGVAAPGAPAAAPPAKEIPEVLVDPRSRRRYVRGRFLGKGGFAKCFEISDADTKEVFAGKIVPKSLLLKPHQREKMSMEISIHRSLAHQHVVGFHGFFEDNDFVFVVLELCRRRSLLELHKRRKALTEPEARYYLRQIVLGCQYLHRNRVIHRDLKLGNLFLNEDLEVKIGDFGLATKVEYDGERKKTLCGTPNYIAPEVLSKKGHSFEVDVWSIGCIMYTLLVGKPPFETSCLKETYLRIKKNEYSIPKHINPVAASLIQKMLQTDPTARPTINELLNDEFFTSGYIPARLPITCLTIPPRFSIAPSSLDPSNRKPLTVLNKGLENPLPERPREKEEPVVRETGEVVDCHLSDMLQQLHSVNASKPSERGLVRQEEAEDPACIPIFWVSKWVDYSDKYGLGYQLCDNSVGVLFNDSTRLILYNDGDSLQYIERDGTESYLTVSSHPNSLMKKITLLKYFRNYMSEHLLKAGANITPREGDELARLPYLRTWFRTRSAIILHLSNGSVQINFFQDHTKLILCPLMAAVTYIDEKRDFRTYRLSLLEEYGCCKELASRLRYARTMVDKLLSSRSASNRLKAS
Chain of Tyrosine-protein kinase JAK1 (Homo sapiens) (P23458 whole entry): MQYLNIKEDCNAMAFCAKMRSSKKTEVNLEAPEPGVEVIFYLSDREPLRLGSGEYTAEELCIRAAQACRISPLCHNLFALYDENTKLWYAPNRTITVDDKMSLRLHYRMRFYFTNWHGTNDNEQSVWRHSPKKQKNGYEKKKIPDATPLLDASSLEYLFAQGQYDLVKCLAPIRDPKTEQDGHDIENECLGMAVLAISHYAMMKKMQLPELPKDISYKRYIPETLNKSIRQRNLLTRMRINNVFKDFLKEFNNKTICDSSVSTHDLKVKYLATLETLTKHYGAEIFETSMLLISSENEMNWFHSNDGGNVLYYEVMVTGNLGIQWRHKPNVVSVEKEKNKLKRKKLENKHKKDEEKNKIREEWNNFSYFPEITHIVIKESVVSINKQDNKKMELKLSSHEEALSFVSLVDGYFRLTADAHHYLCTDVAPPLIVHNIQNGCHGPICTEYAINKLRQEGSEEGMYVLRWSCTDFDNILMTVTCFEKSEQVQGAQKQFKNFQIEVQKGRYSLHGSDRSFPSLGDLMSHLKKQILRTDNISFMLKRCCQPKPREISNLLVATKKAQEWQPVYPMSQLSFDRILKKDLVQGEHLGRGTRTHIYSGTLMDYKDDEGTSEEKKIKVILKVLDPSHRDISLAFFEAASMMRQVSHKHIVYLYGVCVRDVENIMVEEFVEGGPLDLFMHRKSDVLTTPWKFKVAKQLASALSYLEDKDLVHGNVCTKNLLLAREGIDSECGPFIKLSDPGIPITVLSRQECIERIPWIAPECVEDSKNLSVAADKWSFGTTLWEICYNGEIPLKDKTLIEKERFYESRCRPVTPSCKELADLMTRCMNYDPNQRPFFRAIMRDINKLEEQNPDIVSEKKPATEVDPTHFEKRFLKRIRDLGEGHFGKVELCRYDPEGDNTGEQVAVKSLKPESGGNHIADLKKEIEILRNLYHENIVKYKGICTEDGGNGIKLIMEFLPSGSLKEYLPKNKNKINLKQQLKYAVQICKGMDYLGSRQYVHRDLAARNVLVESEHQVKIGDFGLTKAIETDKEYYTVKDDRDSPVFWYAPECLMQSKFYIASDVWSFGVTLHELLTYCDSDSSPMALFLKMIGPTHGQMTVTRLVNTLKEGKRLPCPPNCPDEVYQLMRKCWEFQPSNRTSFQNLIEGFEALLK
Chain of Serine/threonine-protein kinase Chk2 (O96017 whole entry): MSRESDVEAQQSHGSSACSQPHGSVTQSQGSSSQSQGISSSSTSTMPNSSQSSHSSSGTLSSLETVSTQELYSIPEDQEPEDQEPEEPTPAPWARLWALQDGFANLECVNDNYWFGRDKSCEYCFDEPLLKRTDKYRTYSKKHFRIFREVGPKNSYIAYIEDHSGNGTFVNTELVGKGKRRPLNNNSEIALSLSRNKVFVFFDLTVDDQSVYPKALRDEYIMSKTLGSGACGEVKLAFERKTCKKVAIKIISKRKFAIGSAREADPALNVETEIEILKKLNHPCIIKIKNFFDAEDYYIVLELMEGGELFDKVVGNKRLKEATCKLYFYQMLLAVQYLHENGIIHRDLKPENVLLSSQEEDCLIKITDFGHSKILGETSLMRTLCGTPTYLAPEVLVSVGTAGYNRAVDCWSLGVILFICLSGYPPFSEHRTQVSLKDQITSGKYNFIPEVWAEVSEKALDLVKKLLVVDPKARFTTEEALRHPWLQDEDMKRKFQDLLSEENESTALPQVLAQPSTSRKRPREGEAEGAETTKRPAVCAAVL
Chain of Cyclin-dependent kinase-like 1 (Homo sapiens) (Q00532 whole entry): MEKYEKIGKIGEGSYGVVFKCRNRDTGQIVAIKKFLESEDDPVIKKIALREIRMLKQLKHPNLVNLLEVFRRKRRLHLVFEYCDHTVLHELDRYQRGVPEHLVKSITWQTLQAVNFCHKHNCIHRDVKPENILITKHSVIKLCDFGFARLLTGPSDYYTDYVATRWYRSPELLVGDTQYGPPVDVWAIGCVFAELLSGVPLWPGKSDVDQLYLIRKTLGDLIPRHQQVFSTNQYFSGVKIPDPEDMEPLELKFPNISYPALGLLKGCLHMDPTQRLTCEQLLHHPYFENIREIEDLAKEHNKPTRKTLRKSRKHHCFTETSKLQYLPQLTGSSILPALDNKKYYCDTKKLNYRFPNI
Chain of Calcium/calmodulin-dependent protein kinase type II subunit alpha (Homo sapiens) (Q9UQM7 whole entry, canonical isoform): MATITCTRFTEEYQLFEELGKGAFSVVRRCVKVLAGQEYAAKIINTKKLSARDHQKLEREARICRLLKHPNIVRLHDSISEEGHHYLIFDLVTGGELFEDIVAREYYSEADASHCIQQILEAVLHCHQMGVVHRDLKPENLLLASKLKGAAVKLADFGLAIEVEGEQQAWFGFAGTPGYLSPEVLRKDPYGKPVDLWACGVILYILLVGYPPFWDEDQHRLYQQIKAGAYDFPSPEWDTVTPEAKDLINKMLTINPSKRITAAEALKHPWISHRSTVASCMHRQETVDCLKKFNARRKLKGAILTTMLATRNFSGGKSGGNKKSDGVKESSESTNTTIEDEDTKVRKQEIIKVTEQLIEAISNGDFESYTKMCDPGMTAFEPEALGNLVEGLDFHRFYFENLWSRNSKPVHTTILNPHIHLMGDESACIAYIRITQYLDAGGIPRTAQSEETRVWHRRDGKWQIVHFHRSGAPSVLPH
Chain of Serine/threonine-protein kinase 26 (Homo sapiens) (Q9P289 2-416 limits assumed): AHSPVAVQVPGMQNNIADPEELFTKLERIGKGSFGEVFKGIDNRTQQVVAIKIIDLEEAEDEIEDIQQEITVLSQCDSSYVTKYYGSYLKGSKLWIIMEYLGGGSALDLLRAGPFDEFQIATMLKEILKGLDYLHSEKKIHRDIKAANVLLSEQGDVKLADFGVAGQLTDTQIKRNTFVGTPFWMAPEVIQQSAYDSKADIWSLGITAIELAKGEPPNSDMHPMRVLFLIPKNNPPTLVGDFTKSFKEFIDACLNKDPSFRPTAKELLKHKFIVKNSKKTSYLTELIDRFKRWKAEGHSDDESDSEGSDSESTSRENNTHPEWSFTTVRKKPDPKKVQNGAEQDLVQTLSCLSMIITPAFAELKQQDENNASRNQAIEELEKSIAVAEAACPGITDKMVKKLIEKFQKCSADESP
Chain of Casein kinase I isoform gamma-2 (Homo sapiens) (P78368 whole entry, looked up, canonical isoform): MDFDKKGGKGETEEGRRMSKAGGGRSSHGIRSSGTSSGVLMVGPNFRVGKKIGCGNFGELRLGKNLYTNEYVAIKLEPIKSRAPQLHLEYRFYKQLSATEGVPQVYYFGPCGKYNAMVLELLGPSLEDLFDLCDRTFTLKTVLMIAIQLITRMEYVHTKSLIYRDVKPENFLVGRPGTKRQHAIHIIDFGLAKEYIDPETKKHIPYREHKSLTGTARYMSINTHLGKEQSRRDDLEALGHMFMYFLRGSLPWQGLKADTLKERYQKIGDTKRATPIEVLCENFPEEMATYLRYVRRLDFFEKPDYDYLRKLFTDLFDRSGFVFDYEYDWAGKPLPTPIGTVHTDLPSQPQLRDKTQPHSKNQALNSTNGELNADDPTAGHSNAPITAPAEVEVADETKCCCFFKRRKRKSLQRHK

With `Cc1cc(C=C2C(=O)C=CC2=O)cc(C)c1O`, the ΔTm in assay [1] is 1.2 °C; in assay [2], -0.1 °C; in [3], 2.5 °C; in [4] it was -2.2 °C; in assay [5] it was 0.6 °C; in assay [6], -1.4 °C. Moreover, the shift in melting temperature (ΔTm) in assay [7] is -1.5 °C; in assay [8] it was -2.2 °C; in assay [9], -0.3 °C; in assay [10] it was 0.5 °C; in assay [11] it was -0.1 °C; in assay [12] it was -2.6 °C. For the same compound, the ΔTm in assay [13] was 1.3 °C; in assay [14], 1 °C; in assay [15], 1.2 °C; in assay [16], -4.6 °C; in [17], -1.6 °C; in [18], -7.1 °C. For the same compound, the thermal shift (ΔTm) was 0.1 °C in [19] and -5.7 °C in assay [20].

As for `O=C1NC(=O)c2c1c1c3ccccc3n3c1c1c2c2ccccc2n1C1CCC3O1`, the ΔTm was -0.4 °C in assay [1]; 0.3 °C in assay [2]; 3.9 °C in assay [3]; 3.9 °C in assay [4]; 4 °C in assay [5]; 6.2 °C in assay [6]. Also, the ΔTm was 0.5 °C in assay [7]; -0.4 °C in assay [8]; 0 °C in assay [9]; 0.7 °C in assay [10]; -0.6 °C in assay [11]; 1.5 °C in assay [12]. Moreover, the thermal shift (ΔTm) was 0 °C in [13]; 0.2 °C in assay [14]; -0.5 °C in assay [15]; -0.4 °C in assay [16]; 0.5 °C in assay [17]; -0.2 °C in assay [18]. For the same compound, the thermal shift (ΔTm) in assay [19] stood at 2.4 °C; in [20], 5.5 °C.

As for `NC1=N/C(=C2/CCNC(=O)c3[nH]ccc32)C(=O)N1` [DEBROMOHYMENIALDISINE], the ΔTm is 0.1 °C in assay [1]; 2.4 °C in [2]; 1.7 °C in assay [3]; -0.5 °C in [4]; 2.4 °C in assay [5]; 0.7 °C in assay [6]. In addition, the ΔTm in assay [7] was 4.5 °C; in assay [8], 0.3 °C; in assay [9], 0.5 °C; in assay [10], 3.5 °C; in [11], 0.7 °C; in assay [12], 0.1 °C. Further, the thermal shift (ΔTm) in assay [13] is 0.9 °C; in assay [14], 0.7 °C; in assay [15] it was 1.7 °C; in [16] it was 10.2 °C; in [17] it was 0.3 °C; in assay [18], -0.2 °C. The figures for the shift in melting temperature (ΔTm) in [19] and in assay [20] were 0.2 °C and 2.5 °C, respectively.

With `Nc1cccc(-c2cc3c(Oc4cccc(O)c4)ncnc3[nH]2)c1`, the thermal shift (ΔTm) is 0.5 °C in assay [1]; 1 °C in assay [2]; 1.7 °C in [3]; 0.6 °C in [4]; 4.4 °C in assay [5]; 0.7 °C in assay [6]. For the same compound, the ΔTm in assay [7] turned out to be 0.9 °C; in [8], 0.6 °C; in [9], 2.2 °C; in [10], 1.2 °C; in assay [11] it was 2.2 °C; in assay [12], 1.3 °C. Also, the shift in melting temperature (ΔTm) in [13] was determined as 0.8 °C; in [14] it was 0.9 °C; in assay [15], 5.9 °C; in assay [16] it was 0.9 °C; in assay [17], 1.2 °C; in [18], 4.3 °C. The thermal shift (ΔTm) was found to be 1.7 °C in [19] and 0.8 °C in assay [20].

As to `O=C1Nc2ccccc2/C1=C\c1ccc[nH]1`, the shift in melting temperature (ΔTm) was 1.2 °C in assay [1]; 1.8 °C in [2]; 4.1 °C in [3]; 3.2 °C in [4]; -0.6 °C in assay [5]; 0.1 °C in assay [6]. For the same compound, the ΔTm in assay [7] was determined as 0.5 °C; in [8], 1.4 °C; in assay [9], 0.1 °C; in [10], 1.6 °C; in [11], 3.9 °C; in assay [12] it was 1.6 °C. Besides, the shift in melting temperature (ΔTm) in assay [13] is 6 °C; in assay [14] it was 3.4 °C; in [15], 5.3 °C; in [16] it was 11 °C; in [17], -0.1 °C; in assay [18], 8.5 °C. In addition, the figures for the ΔTm in [19] and in assay [20] were 0.7 °C and 0.8 °C, respectively.

Take `O=C1C(Cl)=C(N2C(=O)CCC2=O)C(=O)c2ccccc21`: the thermal shift (ΔTm) in assay [1] was 3.4 °C; in assay [2], 0.1 °C; in assay [3] it was 5.6 °C; in [4] it was 0.6 °C; in assay [5], -0.2 °C; in assay [6] it was 0.9 °C. In addition, the ΔTm in assay [7] is -1.3 °C; in [8], -0.5 °C; in assay [9] it was -0.7 °C; in assay [10] it was 0.1 °C; in assay [11] it was -2.1 °C; in assay [12], -5 °C. Moreover, the ΔTm was -3.7 °C in assay [13]; -1.1 °C in assay [14]; -0.5 °C in assay [15]; 0.5 °C in [16]; -1.1 °C in assay [17]; -2.9 °C in [18]. In addition, the ΔTm in assay [19] is -1.3 °C; in [20] it was -4.1 °C.

`O=C(O)c1cc(N(Cc2ccccc2O)Cc2cc(O)ccc2O)ccc1O` [LAVENDUSTIN A]: the ΔTm in assay [1] is 1.3 °C; in assay [2], 0.8 °C; in assay [3], 0.8 °C; in [4], -1.1 °C; in [5], 0.9 °C; in assay [6], 1.1 °C. For the same compound, the thermal shift (ΔTm) in assay [7] is 0.3 °C; in [8] it was -0.3 °C; in assay [9] it was 0.7 °C; in assay [10] it was 0.6 °C; in assay [11], 0.4 °C; in assay [12], -0.3 °C. The ΔTm turned out to be 1.1 °C in assay [13]; 1.3 °C in assay [14]; 0.1 °C in assay [15]; 0.1 °C in assay [16]; 0.8 °C in assay [17]; 0.4 °C in assay [18]. In addition, the ΔTm was -0.5 °C in assay [19] and 1.1 °C in assay [20].

By ΔTm is commonly meant the change in melting temperature against a reference sample.

Source of the values: ChEMBL document CHEMBL1145498, “A systematic interaction map of validated kinase inhibitors with Ser/Thr kinases” (Proc Natl Acad Sci U S A, 2007).
